Measured values as given in US20130254944A1, “Herbicide Tolerant Soybeans and Methods of Use” (PIONEER HI BRED INTERNATIONAL INC, priority 2012, published 2013).

Key:
Format in all cases: in vivo
wild type soybean = experiment: Greenhouse postemergence test of ALS-inhibiting herbicides, wild type soybean
Experimental: (§1) Soybean lines having wild type als1 & 2 genes, the Als1 mutation, the Als2 mutation, or both the Als1 and Als2 mutations were evaluated for their response to various herbicides. Two seeds from each line were planted into 4-inch pots containing Redi-Earth potting mix (Sun Gro Horticulture Canada Ltd. 52130 RR65, Seba Beach, Alberta TOE 2B0), with two replications planted for each treatment. Pots were placed in flats at 15 pots/flat, and the resulting plants were grown in a greenhouse environment supplemented with lighting (16 hr photoperiod) for the duration of the test. Selected herbicides representing the mode of action that inhibits the acetolactate synthase enzyme, also known as the acetohydroxyacid synthase enzyme, were applied postemergence to soybean when soybean plants were at the V2 growth stage, which is the stage at which the first two trifoliolate leaves were expanded.
(§2) Eleven active ingredients representing the five chemical families with herbicidal activity on the acetolactate synthase enzyme were tested. These herbicides can cause a phytotoxic response in wild type soybean plants. The five chemical families tested were sulfonylaminocarbonyltriazolinone (also known as triazolinone), imidazolinone, sulfonylurea, pyrimidinylthiobenzoate, and triazolopyrimidine. Application rates ranged from 0.5 times to eight times the currently labeled application rate for each active ingredient with spray application volume at 30 gallons/acre. The application rates tested were 0.5×, 1×, 2×, 4× and 8× the label rate for each herbicide. Herbicidal active ingredients were applied as formulated materials dispersed in water containing 0.25% nonionic surfactant (Trend® 90).
(§3) The test was evaluated by visually scoring plant phenotype 14 days after the herbicides were applied. Controls consisted of soybean plants of the same variety that received no herbicide treatments for each of all the varieties tested. Soybean response was recorded on a zero to 100 visual scale in which zero is no phytotoxic response and 100 is plant death fourteen days after the herbicides were applied. Soybean response (percent phytotoxicity) to postemergence applications of herbicides inhibiting the acetolactate synthase enzyme test results are shown in Table 1.

[1] = test system: soybean having the Als2 mutation; experiment: Greenhouse postemergence test of ALS-inhibiting herbicides, soybean with Als2 mutation; conditions: for Avg response (% phytotoxicity), Trait Als2: Table 2
Experimental: as §1, §2, §3
(§4) Results in Table 1 were evaluated using the isobole method for analyzing interactions. […] Here the biologically active agents that are being assessed for interaction (synergy) are gene mutations in soybean. The effectiveness of the genes in providing improved tolerance to ALS-inhibiting herbicides was assessed by applying increasing doses of herbicides to each soybean line with its mutation(s).
(§5) An isobole reduces a dose response surface in three dimensional space to a two dimensional plot by fixing a defined response level (e.g., 50% response). The isobole plot is a graph in the Cartesian plane with a straight line connecting the isoeffective rates of the individual components of the combination. This straight line represents expected responses for zero interactive combinations. The isoeffective rate used to create the isobole is often the EC50, the rate estimated to elicit 50% response, but other ECx values can be used. Since the isobole method is based on the potency of the components of the combination, an experimental design testing a range of rates expected to elicit the full range of responses (e.g., 0 to maximum response) is best. (Ferry et al. (2005) 2005 Conference on Applied Statistics in Agriculture Proceedings pp 33-50, Manhattan, Kans., Kansas State Univ.; Green and Streibig (1993) Herbicide Mixtures, pp 117-134 in Herbicide Bioassays, Streibig and Hudsk Eds, CRC, Boca Raton, Fla.).
(§6) Loglogistic dose response curves were fit to percent phytotoxicity response data using log 10 of dose (McCullagh and Nelder (1989) Generalized Linear Models, Chapman & Hall, London). Curves were fit using the logit link with normal errors. […]

[2] = test system: soybean having the Als1 mutation; experiment: Greenhouse postemergence test of ALS-inhibiting herbicides, soybean with Als1 mutation; conditions: for Avg response (% phytotoxicity), Trait Als1: Table 2
Experimental: as §1, §2, §3, §4, §5, §6

[3] = test system: soybean having both the Als1 and Als2 mutations; experiment: Greenhouse postemergence test of ALS-inhibiting herbicides and isobole analysis, soybean with Als1 and Als2 mutations; conditions: for Avg response (% phytotoxicity), Trait Als1 + Als2: Table 2
Experimental: as §1, §2, §3, §4, §5, §6

[4] = 4.38 g ai/ha postemergence at V2, scored 14 days after application
[5] = 8.75 g ai/ha postemergence at V2, scored 14 days after application
[6] = 17.5 g ai/ha postemergence at V2, scored 14 days after application
[7] = 35 g ai/ha postemergence at V2, scored 14 days after application
[8] = 70 g ai/ha postemergence at V2, scored 14 days after application
[9] = rates 0.5x to 8x the label rate
[10] = rate of herbicide estimated to cause 10% phytotoxic response, loglogistic fit
[11] = 140 g ai/ha postemergence at V2, scored 14 days after application
[12] = rate of herbicide estimated to cause 50% phytotoxic response, loglogistic fit

COc1nc(C)nc(NC(=O)NS(=O)(=O)c2ccsc2C(=O)O)n1 [Thifensulfuron]
0%: Soybean response (percent phytotoxicity), Wild type (wild type soybean; [4]) | Soybean response (percent phytotoxicity), Als2 [1, 4] | Soybean response (percent phytotoxicity), Als2 [1, 5] | Soybean response (percent phytotoxicity), Als2 [1, 6] | Soybean response (percent phytotoxicity), Als2 [1, 7] | Soybean response (percent phytotoxicity), Als2 [1, 8] | Soybean response (percent phytotoxicity), Als1 [2, 4] | Soybean response (percent phytotoxicity), Als1 [2, 5] | Soybean response (percent phytotoxicity), Als1 [2, 6] | Soybean response (percent phytotoxicity), Als1 [2, 7] | Soybean response (percent phytotoxicity), Als1 [2, 8] | Soybean response (percent phytotoxicity), Als1 + Als2 [3, 4] | Soybean response (percent phytotoxicity), Als1 + Als2 [3, 5] | Soybean response (percent phytotoxicity), Als1 + Als2 [3, 6] | Soybean response (percent phytotoxicity), Als1 + Als2 [3, 7] | Soybean response (percent phytotoxicity), Als1 + Als2 [3, 8]
10%: Soybean response (percent phytotoxicity), Wild type (wild type soybean; [5]) | Soybean response (percent phytotoxicity), Wild type (wild type soybean; [6])
45%: Soybean response (percent phytotoxicity), Wild type (wild type soybean; [8])
25%: Soybean response (percent phytotoxicity), Wild type (wild type soybean; [7])
did not cause any phytotoxic response: phytotoxic response (in words), Als2 [1, 9] | phytotoxic response (in words), Als1 [2, 9] | phytotoxic response (in words), Als1+Als2 [3, 9]

COc1nc(C)nc(N(C)C(=O)NS(=O)(=O)c2ccccc2C(=O)O)n1 [Tribenuron]
98%: Soybean response (percent phytotoxicity), Wild type (wild type soybean; [7]) | Soybean response (percent phytotoxicity), Wild type (wild type soybean; [8])
70%: Soybean response (percent phytotoxicity), Wild type (wild type soybean; [5])
93%: Soybean response (percent phytotoxicity), Wild type (wild type soybean; [6])
70 g ai/ha: EC10, Als1 [2, 10]
10%: Soybean response (percent phytotoxicity), Wild type (wild type soybean; [4]) | Soybean response (percent phytotoxicity), Als1 [2, 8] | Avg response (% phytotoxicity), Trait Als1 ([2]; 70 g ai/ha)
60%: Soybean response (percent phytotoxicity), Als2 [1, 7] | Avg response (% phytotoxicity), Trait Als2 ([1]; 35 g ai/ha)
0%: Soybean response (percent phytotoxicity), Als2 [1, 4] | Avg response (% phytotoxicity), Trait Als2 ([1]; 4.38 g ai/ha) | Soybean response (percent phytotoxicity), Als1 [2, 4] | Avg response (% phytotoxicity), Trait Als1 ([2]; 4.38 g ai/ha) | Soybean response (percent phytotoxicity), Als1 [2, 5] | Avg response (% phytotoxicity), Trait Als1 ([2]; 8.75 g ai/ha) | Soybean response (percent phytotoxicity), Als1 [2, 6] | Avg response (% phytotoxicity), Trait Als1 ([2]; 17.5 g ai/ha) | Soybean response (percent phytotoxicity), Als1 [2, 7] | Avg response (% phytotoxicity), Trait Als1 ([2]; 35 g ai/ha) | Soybean response (percent phytotoxicity), Als1 + Als2 [3, 4] | Avg response (% phytotoxicity), Trait Als1 + Als2 ([3]; 4.38 g ai/ha) | Soybean response (percent phytotoxicity), Als1 + Als2 [3, 5] | Avg response (% phytotoxicity), Trait Als1 + Als2 ([3]; 8.75 g ai/ha) | Soybean response (percent phytotoxicity), Als1 + Als2 [3, 6] | Avg response (% phytotoxicity), Trait Als1 + Als2 ([3]; 17.5 g ai/ha) | Soybean response (percent phytotoxicity), Als1 + Als2 [3, 7] | Avg response (% phytotoxicity), Trait Als1 + Als2 ([3]; 35 g ai/ha) | Soybean response (percent phytotoxicity), Als1 + Als2 [3, 8] | Avg response (% phytotoxicity), Trait Als1 + Als2 ([3]; 70 g ai/ha)
65%: Soybean response (percent phytotoxicity), Als2 [1, 8] | Avg response (% phytotoxicity), Trait Als2 ([1]; 70 g ai/ha)
40%: Soybean response (percent phytotoxicity), Als2 [1, 6] | Avg response (% phytotoxicity), Trait Als2 ([1]; 17.5 g ai/ha)
4.96 g ai/ha: EC10, Als2 [1, 10]
>70 g ai/ha: EC10, Als1 + Als2 [3, 10]
15%: Soybean response (percent phytotoxicity), Als2 [1, 5] | Avg response (% phytotoxicity), Trait Als2 ([1]; 8.75 g ai/ha)

CC(C)C1(C)N=C(c2ncccc2C(=O)O)NC1=O (stereo not drawn) [Imazapyr]
5%: Soybean response (percent phytotoxicity), Als2 [1, 5] | Avg response (% phytotoxicity), Trait Als2 ([1]; 8.75 g ai/ha)
10%: Soybean response (percent phytotoxicity), Wild type (wild type soybean; [5]) | Soybean response (percent phytotoxicity), Als1 [2, 6] | Avg response (% phytotoxicity), Trait Als1 ([2]; 17.5 g ai/ha)
40%: Soybean response (percent phytotoxicity), Wild type (wild type soybean; [6]) | Soybean response (percent phytotoxicity), Als1 + Als2 [3, 8] | Avg response (% phytotoxicity), Trait Als1 + Als2 ([3]; 70 g ai/ha)
90%: Soybean response (percent phytotoxicity), Wild type (wild type soybean; [8])
80%: Soybean response (percent phytotoxicity), Als1 [2, 8] | Avg response (% phytotoxicity), Trait Als1 ([2]; 70 g ai/ha)
50%: Soybean response (percent phytotoxicity), Als2 [1, 8] | Avg response (% phytotoxicity), Trait Als2 ([1]; 70 g ai/ha)
55%: Soybean response (percent phytotoxicity), Als2 [1, 11] | Avg response (% phytotoxicity), Trait Als2 ([1]; 140 g ai/ha) | Soybean response (percent phytotoxicity), Als1 + Als2 [3, 11] | Avg response (% phytotoxicity), Trait Als1 + Als2 ([3]; 140 g ai/ha)
25%: Soybean response (percent phytotoxicity), Als2 [1, 7] | Avg response (% phytotoxicity), Trait Als2 ([1]; 35 g ai/ha)
75%: Soybean response (percent phytotoxicity), Wild type (wild type soybean; [7])
93.91 g ai/ha: EC50, Als2 [1, 12]
20%: Soybean response (percent phytotoxicity), Als2 [1, 6] | Avg response (% phytotoxicity), Trait Als2 ([1]; 17.5 g ai/ha)
45%: Soybean response (percent phytotoxicity), Als1 [2, 7] | Avg response (% phytotoxicity), Trait Als1 ([2]; 35 g ai/ha)
38.86 g ai/ha: EC50, Als1 [2, 12]
112.81 g ai/ha: EC50, Als1 + Als2 [3, 12]
98%: Soybean response (percent phytotoxicity), Wild type (wild type soybean; [11]) | Soybean response (percent phytotoxicity), Als1 [2, 11] | Avg response (% phytotoxicity), Trait Als1 ([2]; 140 g ai/ha)
0%: Soybean response (percent phytotoxicity), Als1 [2, 5] | Avg response (% phytotoxicity), Trait Als1 ([2]; 8.75 g ai/ha) | Soybean response (percent phytotoxicity), Als1 + Als2 [3, 5] | Avg response (% phytotoxicity), Trait Als1 + Als2 ([3]; 8.75 g ai/ha) | Soybean response (percent phytotoxicity), Als1 + Als2 [3, 6] | Avg response (% phytotoxicity), Trait Als1 + Als2 ([3]; 17.5 g ai/ha) | Soybean response (percent phytotoxicity), Als1 + Als2 [3, 7] | Avg response (% phytotoxicity), Trait Als1 + Als2 ([3]; 35 g ai/ha)
